Series [1] concerns the target T1, human ether a go-go related gene (hERG) K+ channel (Homo sapiens, UniProt Q12809).
T1 construct: a Chinese Hamster Lung cell line stably expressing the full length hERG channel; expressed in transfected cells; host or cells: Chinese Hamster Lung cell line
Nature of the series: hERG assay, IonWorks patch clamp electrophysiology. The conditions noted are these: Chinese Hamster Lung cell line stably expressing hERG; maximum assay concentration 33 uM. The class given is cell-based. As for the experimental part: (§1) Compounds of the invention were tested for inhibition of the human ether a go-go related gene (hERG) K^+ channel using IonWorks patch clamp electrophysiology. 8 Point concentration-response curves were generated on two occasions using 3-fold serial dilutions from the maximum assay concentration (33 uM). Electrophysiological recordings were made from a Chinese Hamster Lung cell line stably expressing the full length hERG channel. Single cell ion currents were measured in the perforated patch clamp configuration (100 ug/mL amphoterocin) at room temperature using an IonWorks Quattro instrument. The internal solution contained 140 mM KCl, 1 mM MgCl2, 1 mM EGTA and 20 mM HEPES and was buffered to pH 7.3. The external solution contained 138 mM NaCl, 2.7 mM KCl, 0.9 mM CaCl2, 0.5 mM MgCl2, 8 mM Na2HPO4 and 1.5 mM KH2PO4, and was buffered to pH 7.3. Cells were clamped at a holding potential of […] for 30 s and then stepped to +40 mV for is. This was followed by a hyperpolarising step of 1 s to […] to evoke the hERG tail current. This sequence was repeated 5 times at a frequency of 0.25 Hz. Currents were measured from the tail step at the 5th pulse, and referenced to the holding current. Compounds were incubated for 6-7 min prior to a second measurement of the hERG signal using an identical pulse train. […] A control compound (quinidine) was used.

Series [2] in a line: Solubility in aqueous solution. Format: physicochemical. The source says:
In an embodiment prodrugs of the present invention are suitable for oral administration. The skilled person understands that the pH of the gastrointestinal tract changes along its length. For example, the stomach has a pH of around pH 1.5 and the GI tract after the stomach has a pH of around 5 to 7.5. For more detail see, for example, Measurement of gastrointestinal pH profiles in normal ambulant human subjects, Gut. 1988 August; 29(8): 1035-1041. Improved solubility is expected to result in improved absorption, and therefore improved oral bioavailability. Thus improved solubility at any pH value between around pH 1.5 to 8 is expected to improve oral bioavailability. Compounds of the invention were assessed for solubility in aqueous solutions having a pH of from 2 to 10. In an embodiment prodrugs of the invention have a solubility of >0.5 mg/mL in an aqueous solution having a pH of from 2 to 8. In an embodiment prodrugs have a solubility of >5.0 mg/mL, or >10.0 mg/mL, >100.0 mg/mL, or >200.0 mg/mL. In an embodiment the prodrugs have the aforementioned aqueous solubility at a pH within the range of from 4 to 8, or from 6 to 8.
In an embodiment prodrugs of the invention are administered intravenously. High prodrug solubility is advantageous in order to reduce the volume of solution administered to the patient, and to reduce the risk of damage to the circulatory system. Solubility of >10 mg/mL is preferred. Yet more preferred is solubility of >30 mg/mL or >100.0 mg/mL. Yet more preferred is solubility of >200.0 mg/mL. The solubility is measured in an aqueous solution having a pH of from 2 to 10, which pH range is advantageous for intravenous prodrug delivery. See, for example, A guide on intravenous drug compatibilities based on their pH, Nasser S C et al./Pharmacie Globale (IJCP) 2010, 5 (01)). In an embodiment the prodrugs of the claimed invention have solubility of >10 mg/mL in an aqueous solution having a pH of from 2 to 10.

Another series concerns the target T2, hERG K+ channel (Homo sapiens, UniProt Q12809).
T2 construct: a Chinese Hamster Lung cell line stably expressing the full length hERG channel; expressed in transfected cells; host or cells: Chinese Hamster Lung cell line
The series is described as follows: hERG assay, IonWorks patch clamp electrophysiology. Format: cell-based. The following applies: human, pH 7.3; 11 uM; Chinese Hamster Lung cell line stably expressing hERG. As for the experimental part:
as §1
(In general: hERG is a cardiac potassium channel; its block is linked to QT prolongation.)

Series [3] relates to high K+ evoked CSD. The conditions noted are these: rats; cited from earlier work.
The conditions of series [4]: human brain; cited from earlier work.
For series [5] the following is noted: cited from earlier work.
For series [6] the following is noted: rat brain; cited from earlier work.
Series [7] relates to high K+ evoked CSD. The following applies: cats; cited from earlier work.
The conditions of series [8]: over a range of pH values including pH of 7.4; cited from earlier work.

In brackets after ≈: the same amount, converted by molar mass. Like-named read-outs stand apart in the source and are kept apart here.

T2 sequence (Q12809 whole entry): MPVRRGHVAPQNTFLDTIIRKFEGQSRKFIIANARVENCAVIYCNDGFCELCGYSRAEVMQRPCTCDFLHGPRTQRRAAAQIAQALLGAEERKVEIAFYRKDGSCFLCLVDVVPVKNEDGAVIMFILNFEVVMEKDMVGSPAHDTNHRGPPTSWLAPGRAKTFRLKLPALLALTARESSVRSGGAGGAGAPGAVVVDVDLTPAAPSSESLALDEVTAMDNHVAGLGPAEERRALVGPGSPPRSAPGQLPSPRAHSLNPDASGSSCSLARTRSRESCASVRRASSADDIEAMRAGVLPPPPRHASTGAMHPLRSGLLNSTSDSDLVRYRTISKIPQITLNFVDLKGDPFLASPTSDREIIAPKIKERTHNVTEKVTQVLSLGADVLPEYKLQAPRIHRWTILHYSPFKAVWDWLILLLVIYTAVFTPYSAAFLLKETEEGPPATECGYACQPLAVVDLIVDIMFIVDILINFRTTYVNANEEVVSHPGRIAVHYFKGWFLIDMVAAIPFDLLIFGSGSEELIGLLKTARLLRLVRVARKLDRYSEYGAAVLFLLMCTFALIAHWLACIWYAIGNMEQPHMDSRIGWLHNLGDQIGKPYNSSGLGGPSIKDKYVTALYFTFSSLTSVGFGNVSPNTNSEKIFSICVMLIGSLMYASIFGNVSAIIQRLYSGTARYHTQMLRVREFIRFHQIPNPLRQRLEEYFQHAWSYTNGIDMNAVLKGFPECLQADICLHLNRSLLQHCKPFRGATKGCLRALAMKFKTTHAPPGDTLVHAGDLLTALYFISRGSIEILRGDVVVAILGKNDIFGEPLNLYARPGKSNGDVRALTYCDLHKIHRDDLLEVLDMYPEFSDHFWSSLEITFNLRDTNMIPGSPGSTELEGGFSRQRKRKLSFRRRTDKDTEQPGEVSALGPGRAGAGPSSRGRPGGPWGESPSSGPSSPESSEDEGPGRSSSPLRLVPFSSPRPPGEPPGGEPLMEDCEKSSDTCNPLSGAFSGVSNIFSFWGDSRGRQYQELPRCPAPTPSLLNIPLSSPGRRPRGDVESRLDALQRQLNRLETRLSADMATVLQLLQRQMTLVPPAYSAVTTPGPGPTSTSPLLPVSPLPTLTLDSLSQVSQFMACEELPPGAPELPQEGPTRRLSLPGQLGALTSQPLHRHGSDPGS
T1 sequence (Q12809 whole entry): as above

Usually IC50 stands for the concentration that inhibits the measured activity by half. The low end stands for higher potency, the high end for lower potency. The solubility is the concentration that dissolves in the medium under given conditions. Lower therefore signals a poorly soluble substance. Molecule `CC(=O)c1ccc2c(c1)[C@H](NC(=O)c1ccc(F)c(Cl)c1)[C@H](OC(=O)[C@H](C)N)C(C)(C)O2.Cl` [Example 1, (3S,4S)-6-Acetyl-4-[(3-chloro-4-fluorobenzene)amido]-2,2-dimethyl-3,4-dihydro-2H-1-benzopyran-3-yl (2S)-2-aminopropanoate hydrochloride] gave an IC50 in [1] of 6 µM. The same molecule returned a solubility in [2] (aqueous buffer, pH 4.0) of over 10000 µg/mL. In general, inhibition refers to how much of the control response was suppressed. Take `CC(=O)c1ccc2c(c1)[C@H](NC(=O)c1ccc(F)c(Cl)c1)[C@H](OC(=O)[C@@H](N)C(C)C)C(C)(C)O2.Cl` [Example 2, (3S,4S)-6-Acetyl-4-[(3-chloro-4-fluorobenzene)amido]-2,2-dimethyl-3,4-dihydro-2H-1-benzopyran-3-yl (2S)-2-amino-3-methylbutanoate hydrochloride]: at hERG K+ channel, at 11 µM the inhibition was 38%. This molecule also returned a solubility in series [2] (pH 4.4, aqueous buffer) of about 5000 µg/mL.

In the case of `CC(=O)c1ccc2c(c1)[C@H](NC(=O)c1ccc(F)c(Cl)c1)[C@H](OC(=O)[C@H](N)C(C)C)C(C)(C)O2.Cl` [Example 3, (3S,4S)-6-Acetyl-4-[(3-chloro-4-fluorobenzene)amido]-2,2-dimethyl-3,4-dihydro-2H-1-benzopyran-3-yl (2R)-2-amino-3-methylbutanoate hydrochloride], half-maximal inhibition in series [1] (IC50) required 4.3 µM. The molecule also displayed a solubility in series [2] (pH 4.8, aqueous buffer) of under 1000 µg/mL. `CC(=O)c1ccc2c(c1)[C@H](NC(=O)c1ccc(F)c(Cl)c1)[C@H](OC(=O)[C@H](N)CC(C)C)C(C)(C)O2.Cl` [Example 4, (3S,4S)-6-Acetyl-4-[(3-chloro-4-fluorobenzene)amido]-2,2-dimethyl-3,4-dihydro-2H-1-benzopyran-3-yl (2R)-2-amino-4-methylpentanoate hydrochloride] yielded a solubility in series [2] (pH 4.2, aqueous buffer) of over 10000 µg/mL. Molecule `CC(=O)c1ccc2c(c1)[C@H](NC(=O)c1ccc(F)c(Cl)c1)[C@H](OC(=O)[C@@H]1CCCN1)C(C)(C)O2.Cl` [Example 5, (3S,4S)-6-Acetyl-4-[(3-chloro-4-fluorobenzene)amido]-2,2-dimethyl-3,4-dihydro-2H-1-benzopyran-3-yl (2S)-pyrrolidine-2-carboxylate hydrochloride] returned an IC50 in [1] of 1.4 µM. Besides, the solubility in series [2] (pH 4.4, aqueous buffer) is over 10000 µg/mL. Regarding `CC(=O)c1ccc2c(c1)[C@H](NC(=O)c1ccc(F)c(Cl)c1)[C@H](OC(=O)C(C)(C)N)C(C)(C)O2.Cl` [Example 6, (3S,4S)-6-Acetyl-4-[(3-chloro-4-fluorobenzene)amido]-2,2-dimethyl-3,4-dihydro-2H-1-benzopyran-3-yl 2-amino-2-methylpropanoate hydrochloride], in [2] (pH 4.7, aqueous buffer), the solubility is over 10000 µg/mL. On to `CN[C@@H](C)C(=O)O[C@H]1[C@@H](NC(=O)c2ccc(F)c(Cl)c2)c2cc(C(C)=O)ccc2OC1(C)C.Cl` [Example 8, (3S,4S)-6-Acetyl-4-[(3-chloro-4-fluorobenzene)amido]-2,2-dimethyl-3,4-dihydro-2H-1-benzopyran-3-yl (2S)-2-(methylamino)propanoate hydrochloride], for which, in series [2] (pH 5.1, aqueous buffer), the solubility was over 10000 µg/mL.

Molecule `CC(=O)c1ccc2c(c1)[C@H](NC(=O)c1ccc(F)c(Cl)c1)[C@H](OC(=O)[C@@H](N)CCCCN)C(C)(C)O2.Cl.Cl` [Example 9, (3S,4S)-6-Acetyl-4-[(3-chloro-4-fluorobenzene)amido]-2,2-dimethyl-3,4-dihydro-2H-1-benzopyran-3-yl (2S)-2,6-diaminohexanoate dihydrochloride] had an inhibition at 11 µM on hERG K+ channel of 0%. Besides, the solubility in [2] (pH 4.4, aqueous buffer) was over 10000 µg/mL. The like results for `CC(=O)c1ccc2c(c1)[C@H](NC(=O)c1ccc(F)c(Cl)c1)[C@H](OC(=O)[C@@H](N)CC(N)=O)C(C)(C)O2.Cl` [Example 10, (3S,4S)-6-Acetyl-4-[(3-chloro-4-fluorobenzene)amido]-2,2-dimethyl-3,4-dihydro-2H-1-benzopyran-3-yl (2S)-2-amino-3-carbamoylpropanoate hydrochloride] were, in that order, 18% and under 1000 µg/mL. In [2] (pH 4.6, aqueous buffer), `CC(=O)c1ccc2c(c1)[C@H](NC(=O)c1ccc(F)c(Cl)c1)[C@H](OC(=O)[C@@H](N)CCC(N)=O)C(C)(C)O2.Cl` [Example 11, (3S,4S)-6-Acetyl-4-[(3-chloro-4-fluorobenzene)amido]-2,2-dimethyl-3,4-dihydro-2H-1-benzopyran-3-yl (2S)-2-amino-4-carbamoylbutanoate hydrochloride] displayed a solubility of over 2000 µg/mL. `CC(=O)c1ccc2c(c1)[C@H](NC(=O)c1ccc(F)c(Cl)c1)[C@H](OC(=O)[C@@H](N)CCCNC(=N)N)C(C)(C)O2.Cl.Cl` [Example 12, (3S,4S)-6-Acetyl-4-[(3-chloro-4-fluorobenzene)amido]-2,2-dimethyl-3,4-dihydro-2H-1-benzopyran-3-yl (2S)-2-amino-5-carbamimidamidopentanoate dihydrochloride]: the inhibition at 11 µM against hERG K+ channel amounted to 9%. This molecule also showed a solubility in [2] (pH 4.4, aqueous buffer) of over 10000 µg/mL.

`CC(=O)c1ccc2c(c1)[C@H](NC(=O)c1ccc(F)c(Cl)c1)[C@H](OC(=O)[C@@H](N)CC(=O)O)C(C)(C)O2` [Example 13, (3S)-4-{[(3S,4S)-6-Acetyl-4-[(3-chloro-4-fluorobenzene)amido]-2,2-dimethyl-3,4-dihydro-2H-1-benzopyran-3-yl]oxy}-3-amino-4-oxobutanoic acid; trifluoroacetic acid] yielded an inhibition at 11 µM at hERG K+ channel of 19%. In series [2] (pH 6.5, aqueous buffer), this molecule showed a solubility of over 2000 µg/mL. In the case of `CC(=O)c1ccc2c(c1)[C@H](NC(=O)c1ccc(F)c(Cl)c1)[C@H](OC(=O)[C@@H](N)CCC(=O)O)C(C)(C)O2` [Example 14, (4S)-5-{[(3S,4S)-6-Acetyl-4-[(3-chloro-4-fluorobenzene)amido]-2,2-dimethyl-3,4-dihydro-2H-1-benzopyran-3-yl]oxy}-4-amino-5-oxopentanoic acid; trifluoroacetic acid], at 11 µM the inhibition at hERG K+ channel was 8%. This molecule had a solubility in [2] (pH 4.6, aqueous buffer) of over 2000 µg/mL. `CC(=O)c1ccc2c(c1)[C@H](NC(=O)c1ccc(F)c(Cl)c1)[C@H](OCOC[C@@H](O)CO)C(C)(C)O2` [Example 16, N-[(3S,4S)-6-Acetyl-3-{[(2S)-2,3-dihydroxypropoxy]methoxy}-2,2-dimethyl-3,4-dihydro-2H-1-benzopyran-4-yl]-3-chloro-4-fluorobenzamide] had a solubility in series [2] (aqueous buffer, pH 3.0) of under 1000 µg/mL.

Usually log P stands for a log measure of how a compound divides between an organic and an aqueous phase. The aqueous solubility is the concentration that dissolves in the medium under given conditions. As to `CC(=O)c1ccc2c(c1)[C@H](NC(=O)c1ccc(F)c(Cl)c1)[C@H](O)C(C)(C)O2` [Tonabersat], the “inhibition of high K+ evoked CSD” value with high K+ evoked CSD [3] and in the series on high K+ evoked CSD [7] was “inhibits high K+ evoked CSD” in each case. For the same molecule, the “binding to unique stereo-selective site” value is “binds selectively and with high affinity” in series [4]; “binds selectively and with high affinity” in [6]. Further, in series [5], the “log P” value is given as 3.32. For the same molecule, the aqueous solubility in series [8] was 25 µg/mL (≈ 63.8 µM).

These data come from patent US20160318891A1, “TONABERSAT PRODRUGS” (PROXIMAGEN LIMITED, priority 2013, published 2016).
